Test results from ChEMBL document CHEMBL1156586, “Structure-activity relationship studies of permeability modulating peptide AT-1002” (Bioorg Med Chem Lett, 2008).
*1 amine or outer side, *2 acyl side, *3 side chain or, on linkers, in order; H or OH if unused. Where a SMILES comes first, the peptide text is derived from it. Bridges are numbered along the chain shown (N, C = ends). Roman numbers before positions name the chains, in order. [ ]: non-standard residue; d: D form. X1 = O=C([C@H](/C=C/c1ccccc1)N[*:1])[*:2]; Leu(4,5-dehydro) = C=C(C)C[C@H](N)C(=O)O; Phe(4-CN) = N#Cc1ccc(C[C@H](N)C(=O)O)cc1; Phe(3-Me) = Cc1cccc(C[C@H](N)C(=O)O)c1; Met(O2) = CS(=O)(=O)CC[C@H](N)C(=O)O; Ala(cPr) = N[C@@H](CC1CC1)C(=O)O; 2Pal = N[C@@H](Cc1ccccn1)C(=O)O; Met(O) = CS(=O)CC[C@H](N)C(=O)O; 2Thi = N[C@@H](Cc1cccs1)C(=O)O; Cha = N[C@@H](CC1CCCCC1)C(=O)O; Tle = CC(C)(C)[C@H](N)C(=O)O; Dab = NCC[C@H](N)C(=O)O; Nva = CCC[C@H](N)C(=O)O; Abu = CC[C@H](N)C(=O)O

Assays:
Caco-2 [1] = test: Permeability from apical to basolateral side of human Caco-2 cell monolayers assessed as increase in lucifer yellow flux at 7.0 mM relative to untreated control; assay type: ADME, cell-based; conditions: caco-2, 7000 µM
Caco-2 [2] = test: Effect on integrity in human Caco-2 cell monolayers assessed as transepithelial resistance by epithelial voltohmmeter relative to control; assay type: ADME, cell-based; set-up: concentration or dose not given beside the values

Structure (SMILES) | fold change (FC) (Caco-2 [1]) | Activity (Caco-2 [2]) [%]
CC[C@H](C)[C@H](NC(=O)[C@H](CCC(=O)O)NC(=O)[C@@H](N)Cc1ccccc1)C(=O)NCC(=O)N[C@@H](CCCNC(=N)N)C(=O)N[C@@H](CC(C)C)C(=O)O (H-FEIGRL-OH) | 1.3 | 104
CC[C@H](C)[C@H](NC(=O)[C@H](Cc1ccc(O)cc1)NC(=O)[C@@H](N)Cc1ccccc1)C(=O)NCC(=O)N[C@@H](CCCNC(=N)N)C(=O)N[C@@H](CC(C)C)C(=O)O (H-FYIGRL-OH) | 0.6 | 118
C=CC[C@H](NC(=O)[C@@H](N)Cc1ccccc1)C(=O)N[C@H](C(=O)NCC(=O)N[C@@H](CCCNC(=N)N)C(=O)N[C@@H](CC(C)C)C(=O)O)[C@@H](C)CC | 103 | 20
C=C(C)C[C@H](NC(=O)[C@@H](N)Cc1ccccc1)C(=O)N[C@H](C(=O)NCC(=O)N[C@@H](CCCNC(=N)N)C(=O)N[C@@H](CC(C)C)C(=O)O)[C@@H](C)CC (H-F[Leu(4,5-dehydro)]IGRL-OH) | 1.9 | 115
C=CC[C@@H](NC(=O)[C@@H](N)Cc1ccccc1)C(=O)N[C@H](C(=O)NCC(=O)N[C@@H](CCCNC(=N)N)C(=O)N[C@@H](CC(C)C)C(=O)O)[C@@H](C)CC | 0.8 | 130
CC[C@H](C)[C@H](NC(=O)[C@H](CC1CCCCC1)NC(=O)[C@@H](N)Cc1ccccc1)C(=O)NCC(=O)N[C@@H](CCCNC(=N)N)C(=O)N[C@@H](CC(C)C)C(=O)O (H-F[Cha]IGRL-OH) | 2.1 | 68
CC[C@H](C)[C@H](NC(=O)[C@H](Cc1cccs1)NC(=O)[C@@H](N)Cc1ccccc1)C(=O)NCC(=O)N[C@@H](CCCNC(=N)N)C(=O)N[C@@H](CC(C)C)C(=O)O (H-F[2Thi]IGRL-OH) | 1.4 | 119
CC[C@H](C)[C@H](NC(=O)[C@H](CO)NC(=O)[C@@H](N)Cc1ccccc1)C(=O)NCC(=O)N[C@@H](CCCNC(=N)N)C(=O)N[C@@H](CC(C)C)C(=O)O (H-FSIGRL-OH) | 2.1 | 94
CC[C@H](C)[C@H](NC(=O)[C@H](CC1CC1)NC(=O)[C@@H](N)Cc1ccccc1)C(=O)NCC(=O)N[C@@H](CCCNC(=N)N)C(=O)N[C@@H](CC(C)C)C(=O)O (H-F[Ala(cPr)]IGRL-OH) | 0.6 | 111
CC[C@H](C)[C@H](NC(=O)[C@H](CCS(C)(=O)=O)NC(=O)[C@@H](N)Cc1ccccc1)C(=O)NCC(=O)N[C@@H](CCCNC(=N)N)C(=O)N[C@@H](CC(C)C)C(=O)O (H-F[Met(O2)]IGRL-OH) | 0.7 | 110
CC[C@H](C)[C@H](NC(=O)[C@H](CCC(N)=O)NC(=O)[C@@H](N)Cc1ccccc1)C(=O)NCC(=O)N[C@@H](CCCNC(=N)N)C(=O)N[C@@H](CC(C)C)C(=O)O (H-FQIGRL-OH) | 1.5 | 112
CC[C@H](C)[C@H](NC(=O)[C@@H](NC(=O)[C@@H](N)Cc1ccccc1)[C@@H](C)O)C(=O)NCC(=O)N[C@@H](CCCNC(=N)N)C(=O)N[C@@H](CC(C)C)C(=O)O (H-FTIGRL-OH) | 3.9 | 66
CCC[C@H](NC(=O)[C@@H](N)Cc1ccccc1)C(=O)N[C@H](C(=O)NCC(=O)N[C@@H](CCCNC(=N)N)C(=O)N[C@@H](CC(C)C)C(=O)O)[C@@H](C)CC (H-F[Nva]IGRL-OH) | 1.6 | 98
CC[C@H](C)[C@H](NC(=O)[C@H](CC(=O)O)NC(=O)[C@@H](N)Cc1ccccc1)C(=O)NCC(=O)N[C@@H](CCCNC(=N)N)C(=O)N[C@@H](CC(C)C)C(=O)O (H-FDIGRL-OH) | 0.7 | 148
CC[C@H](C)[C@H](NC(=O)[C@H](CC(N)=O)NC(=O)[C@@H](N)Cc1ccccc1)C(=O)NCC(=O)N[C@@H](CCCNC(=N)N)C(=O)N[C@@H](CC(C)C)C(=O)O (H-FNIGRL-OH) | 1.5 | 83
CC[C@H](C)[C@H](NC(=O)[C@H](CCN)NC(=O)[C@@H](N)Cc1ccccc1)C(=O)NCC(=O)N[C@@H](CCCNC(=N)N)C(=O)N[C@@H](CC(C)C)C(=O)O (H-F[Dab]IGRL-OH) | 2.1 | 94
CC[C@H](C)[C@H](NC(=O)[C@H](/C=C/c1ccccc1)NC(=O)[C@@H](N)Cc1ccccc1)C(=O)NCC(=O)N[C@@H](CCCNC(=N)N)C(=O)N[C@@H](CC(C)C)C(=O)O (H-F[X1]IGRL-OH) | 1 | 113

Structure (SMILES) | fold change (FC) (Caco-2 [1]) | Activity (Caco-2 [2]) [%]
CC[C@H](C)[C@H](NC(=O)[C@H](CSSC[C@H](NC(=O)[C@@H](N)Cc1ccccc1)C(=O)N[C@H](C(=O)NCC(=O)N[C@@H](CCCNC(=N)N)C(=O)N[C@@H](CC(C)C)C(=O)O)[C@@H](C)CC)NC(=O)[C@@H](N)Cc1ccccc1)C(=O)NCC(=O)N[C@@H](CCCNC(=N)N)C(=O)N[C@@H](CC(C)C)C(=O)O (I: H-FCIGRL-OH / II: H-FCIGRL-OH; disulfide I:2-II:2) | 0.7 | 137
CC[C@H](C)[C@H](NC(=O)[C@H](CCCNC(=N)N)NC(=O)[C@@H](N)Cc1ccccc1)C(=O)NCC(=O)N[C@@H](CCCNC(=N)N)C(=O)N[C@@H](CC(C)C)C(=O)O (H-FRIGRL-OH) | 2.2 | 102
CC[C@H](C)[C@H](NC(=O)[C@H](Cc1cccc(C)c1)NC(=O)[C@@H](N)Cc1ccccc1)C(=O)NCC(=O)N[C@@H](CCCNC(=N)N)C(=O)N[C@@H](CC(C)C)C(=O)O (H-F[Phe(3-Me)]IGRL-OH) | 0.6 | 101
CC[C@H](C)[C@H](NC(=O)[C@H](Cc1ccccn1)NC(=O)[C@@H](N)Cc1ccccc1)C(=O)NCC(=O)N[C@@H](CCCNC(=N)N)C(=O)N[C@@H](CC(C)C)C(=O)O (H-F[2Pal]IGRL-OH) | 0.5 | 148
CC[C@H](C)[C@H](NC(=O)[C@H](CS)NC(=O)[C@@H](N)Cc1ccccc1)C(=O)NCC(=O)N[C@@H](CCCNC(=N)N)C(=O)N[C@@H](CC(C)C)C(=O)O (H-FCIGRL-OH) | 52 | 11
CC[C@H](C)[C@H](NC(=O)[C@H](CS)NC(=O)[C@@H](N)Cc1ccccc1)C(=O)NCC(=O)O (H-FCIG-OH) | 2.2 | 103
CC[C@H](C)[C@H](NC(=O)[C@H](CC(C)C)NC(=O)[C@@H](N)Cc1ccccc1)C(=O)NCC(=O)N[C@@H](CCCNC(=N)N)C(=O)N[C@@H](CC(C)C)C(=O)O (H-FLIGRL-OH) | 1 | 121
CC[C@H](C)[C@H](NC(=O)[C@H](CC[S+](C)[O-])NC(=O)[C@@H](N)Cc1ccccc1)C(=O)NCC(=O)N[C@@H](CCCNC(=N)N)C(=O)N[C@@H](CC(C)C)C(=O)O (stereo partly specified) (H-F[Met(O)]IGRL-OH) | 1.1 | 106
CC[C@H](C)[C@H](NC(=O)[C@@H](NC(=O)[C@@H](N)Cc1ccccc1)C(C)(C)C)C(=O)NCC(=O)N[C@@H](CCCNC(=N)N)C(=O)N[C@@H](CC(C)C)C(=O)O (H-F[Tle]IGRL-OH) | 6.7 | 35
CC[C@H](C)[C@H](NC(=O)[C@@H](NC(=O)[C@@H](N)Cc1ccccc1)C(C)C)C(=O)NCC(=O)N[C@@H](CCCNC(=N)N)C(=O)N[C@@H](CC(C)C)C(=O)O (H-FVIGRL-OH) | 5.7 | 50
CC[C@H](C)[C@H](NC(=O)[C@H](CS)NC(=O)[C@@H](N)Cc1ccccc1)C(=O)NCC(=O)N[C@@H](CCCNC(=N)N)C(=O)O (H-FCIGR-OH) | 31 | 21
CC[C@H](C)[C@H](N)C(=O)NCC(=O)N[C@@H](CCCNC(=N)N)C(=O)N[C@@H](CC(C)C)C(=O)O (H-IGRL-OH) | 0.9 | 70
CC[C@H](C)[C@H](NC(=O)[C@H](CCCCN)NC(=O)[C@@H](N)Cc1ccccc1)C(=O)NCC(=O)N[C@@H](CCCNC(=N)N)C(=O)N[C@@H](CC(C)C)C(=O)O (H-FKIGRL-OH) | 0.4 | 110
CC[C@H](C)[C@H](NC(=O)[C@H](Cc1ccc(C#N)cc1)NC(=O)[C@@H](N)Cc1ccccc1)C(=O)NCC(=O)N[C@@H](CCCNC(=N)N)C(=O)N[C@@H](CC(C)C)C(=O)O (H-F[Phe(4-CN)]IGRL-OH) | 0.3 | 118
CC[C@H](NC(=O)[C@@H](N)Cc1ccccc1)C(=O)N[C@H](C(=O)NCC(=O)N[C@@H](CCCNC(=N)N)C(=O)N[C@@H](CC(C)C)C(=O)O)[C@@H](C)CC (H-F[Abu]IGRL-OH) | 1.1 | 96
CC[C@H](C)[C@H](NC(=O)[C@H](Cc1cnc[nH]1)NC(=O)[C@@H](N)Cc1ccccc1)C(=O)NCC(=O)N[C@@H](CCCNC(=N)N)C(=O)N[C@@H](CC(C)C)C(=O)O (H-FHIGRL-OH) | 1 | 102
